Measured values published in article PMC11876671, “Investigating blood–brain barrier penetration and neurotoxicity of natural products for central nervous system drug development” (Scientific Reports, 2025).
Structures can show the parent of a compound that is named as a salt.

Test: not given
Conditions: not given

| Compound | PAMPA-BBB Pe(10^-6 cm/sec) |
| --- | --- |
| COc1cc2c(c3oc(=O)c4c(c13)CCOC4=O)C1C=COC1O2 (stereo not drawn) [AFLATOXIN G1] | <1 10^-6 cm/sec |
| COc1cc2c(c3oc(=O)c4c(c13)CCC4=O)[C@@H]1C=CO[C@@H]1O2 [AFLATOXIN B1] | 7.2 10^-6 cm/sec |

Same assay, conditions: PAMPA

| Compound | PAMPA-BBB permeability category |
| --- | --- |
| Cn1c(=O)c2c(ncn2C)n(C)c1=O [caffeine, reference compound] | low permeability |
| NC(=O)N1c2ccccc2C=Cc2ccccc21 [carbamazepine, reference compound] | moderate permeability |

Same assay, conditions: Table S2: compounds exhibiting moderate to high PAMPA-BBB permeability

| Compound | PAMPA-BBB Pe |
| --- | --- |
| COc1ccc(C(=O)OC2C[C@H]3CC[C@H](C2)N3C)cc1OC (stereo partly drawn) [NCGC00016471-04] | 16 10^-6 cm/sec |
| COc1cc2c(cc1-c1coc3c4c(c(OC)cc3c1=O)OC(C)(C)C=C4)OCO2 [NCGC00178961-03] | 146 10^-6 cm/sec |
| COc1ccc([C@H]2COc3c(ccc(O)c3OC)C2)c(OC)c1O [NCGC00179004-02] | 127 10^-6 cm/sec |
| CC1(C)C(=O)C=C[C@@]2(C)C1C[C@@H](O)[C@]1(C)C2CC[C@@]2(C)[C@H](c3ccoc3)OC(=O)[C@H]3O[C@]321 (stereo partly drawn) [NCGC00179150-03] | 108 10^-6 cm/sec |
| COc1cc(/C=C/C(=O)c2ccc(O)cc2O)ccc1O [NCGC00163564-01] | 188 10^-6 cm/sec |
| CCOC(=O)c1c(C)cc(O)c(C=O)c1O [NCGC00095517-01] | 110 10^-6 cm/sec |
| COC(=O)C[C@H]1C2(C)C[C@]34O[C@@]5(C)O[C@@]6([C@H](OC(C)=O)C(OC(C)=O)[C@]7(C)C(/C(=C(/O)C(C)C)C(=O)O[C@H]7c7ccoc7)[C@@]6(O5)[C@H](OC(C)=O)[C@@]3(O)C2OC(=O)C(C)C)[C@]14C (stereo partly drawn) [NCGC00264007-02] | 28 10^-6 cm/sec |
| CO[C@H]1C=C2CCN(C)[C@H]2C2c3cc4c(cc3C(=O)O[C@@H]21)OCO4 (stereo partly drawn) [NCGC00179416-02] | 19 10^-6 cm/sec |
| c1cnc2c(-c3nccc4c3[nH]c3ccccc34)cccc2c1 [NCGC00160283-01] | 352 10^-6 cm/sec |
| CCCc1cc(=O)c2ccccc2n1C [NCGC00351153-01] | 137 10^-6 cm/sec |
| CC1(C)C=Cc2c(ccc(C(=O)/C=C/c3ccccc3)c2O)O1 [NCGC00187466-02] | 10 10^-6 cm/sec |
| COc1cc(=O)n(C)c2c(OCC3OC(C)(C)OC3(C)C)cccc12 (stereo not drawn) [NCGC00160200-01] | 106 10^-6 cm/sec |
| COc1cc(C(=O)O[C@H]2CC(C)=CCC/C(C)=C/[C@@H](O)C2C(C)C)ccc1O (stereo partly drawn) [NCGC00163636-01] | 88 10^-6 cm/sec |
| COc1cc2c(cc1OC)-c1cc3cc(OC)c(OC)cc3c(=O)n1CC2 [NCGC00160189-01] | 232 10^-6 cm/sec |
| C/C=C/c1ccc(OC(C)[C@@H](O)c2ccc(O)c(OC)c2)c(OC)c1 (stereo partly drawn) [NCGC00160251-01] | 150 10^-6 cm/sec |

Same assay, conditions: Table S3: compounds exhibiting low PAMPA-BBB permeability

| Compound | PAMPA-BBB Pe(10^-6 cm/sec) |
| --- | --- |
| N[C@H](C(=O)O)c1ccc(O)c(C(=O)O)c1 [NCGC00024539-02] | <1 10^-6 cm/sec |
| CN(N=O)c1cc(O)ccc1O [NCGC00261088-01] | <1 10^-6 cm/sec |
| Cn1cnc2c(ncn2[C@@H]2O[C@H](CO)[C@@H](O)[C@H]2O)c1=N [NCGC00163305-01] | <1 10^-6 cm/sec |
| CC1(C)C(=O)C=C[C@@]2(C)C1CC(=O)[C@]1(C)C2CC[C@@]2(C)[C@H](c3ccoc3)OC(=O)[C@H]3O[C@]321 (stereo partly drawn) [NCGC00179119-02] | <1 10^-6 cm/sec |
| Cc1c(O)c2c(c(C(=O)/C=C/c3ccccc3)c1O)OC(C)(C)C=C2 [NCGC00187465-01] | <1 10^-6 cm/sec |
| COc1c(O)cc2c(=O)oc3c(OC)c(O)cc4c(=O)oc1c2c34 [NCGC00160203-01] | <1 10^-6 cm/sec |
| O=C(OC[C@H]1O[C@H](OC(=O)c2cc(O)c(O)c(OC(=O)c3cc(O)c(O)c(O)c3)c2)[C@H](OC(=O)c2cc(O)c(O)c(OC(=O)c3cc(O)c(O)c(O)c3)c2)[C@@H](OC(=O)c2cc(O)c(O)c(OC(=O)c3cc(O)c(O)c(O)c3)c2)[C@@H]1OC(=O)c1cc(O)c(O)c(OC(=O)c2cc(O)c(O)c(O)c2)c1)c1cc(O)c(O)c(OC(=O)c2cc(O)c(O)c(O)c2)c1 [NCGC00263877-02] | <1 10^-6 cm/sec |
| COc1cc2oc(=O)c3c4c(cc5ccc(c1CCN(C)C)c2c53)OCO4 [NCGC00160212-01] | <1 10^-6 cm/sec |
| COc1cc2oc(=O)ccc2cc1O [NCGC00163577-02] | 2.2 10^-6 cm/sec |
| COC1=C(O)C(=O)c2c(cc3oc(C(C)=O)c(O)c3c2O)C1=O [NCGC00178066-02] | <1 10^-6 cm/sec |
| Nc1ncnc2c1ncn2[C@@H]1O[C@H](COP(=O)(O)OP(=O)(O)OC[C@H]2OC(O)[C@H](O)[C@@H]2O)[C@@H](O)[C@H]1O (stereo partly drawn) [NCGC00163321-01] | <1 10^-6 cm/sec |
| COc1cc(C(O)CO)ccc1OS(=O)(=O)[O-].[K+] (stereo not drawn) [NCGC00261311-01] | <1 10^-6 cm/sec |
| \LYCORINE HYDROCHLORIDE | 3.2 10^-6 cm/sec |

Test: in vitro
Conditions: PAMPA, PAMPA-BBB Pe

| Compound | Papp [nm/s] |
| --- | --- |
| COc1cc2c(cc1OC)[C@@]13CCN4CC5=CCO[C@H]6CC(=O)N2[C@H]1[C@H]6[C@H]5C[C@H]43 [BRUCINUM] | 160 |

Same assay, conditions: PAMPA, PAMPA-BBB Pe(10^-6 cm/sec)

| Compound | Papp [nm/s] |
| --- | --- |
| CN(C)[C@@H]1C(O)=C(C(N)=O)C(=O)[C@@]2(O)C(O)=C3C(=O)c4c(O)ccc(Cl)c4[C@@](C)(O)[C@H]3C[C@@H]12 [[…]] | < 10 |

Same assay, conditions: PAMPA, PAMPA-BBB Pe(10^-6 cm/sec), Table S3: compounds exhibiting low PAMPA-BBB permeability

| Compound | Papp [nm/s] |
| --- | --- |
| O=C(O[C@@H]1Cc2c(O)cc(O)cc2O[C@H]1c1cc(O)c(O)c(O)c1)c1cc(O)c(O)c(O)c1 [GALLOCATECHIN GALLATE, (-)-] | < 10 |
| N[C@@H](Cc1cc(I)c(O)c(I)c1)C(=O)O [L-DIIODOTYROSINE] | < 10 |
| COC(=O)C1=CO[C@@H](O[C@@H]2O[C@H](CO)[C@@H](O)[C@H](O)[C@H]2O)[C@H]2[C@@H]1C(=O)C[C@@H]2C [VERBENALIN] | < 10 |
| O=c1cc(-c2ccc(O)cc2)oc2cc(O[C@@H]3O[C@H](CO)[C@@H](O)[C@H](O)[C@H]3O[C@@H]3OC[C@](O)(CO)[C@H]3O)cc(O)c12 [APIIN] | 20 |
| O=C(C[C@H]1NCCC[C@@H]1O)Cn1cnc2ccccc2c1=O [FEBRIFUGINE] | < 10 |
| O=C(OC[C@H]1O[C@@H](OC(=O)c2cc(O)c(O)c(O)c2)[C@H](OC(=O)c2cc(O)c(O)c(O)c2)[C@@H](OC(=O)c2cc(O)c(O)c(O)c2)[C@@H]1O)c1cc(O)c(O)c(O)c1 [1,2,3,6-TETRA-O-GALLOYL-.BETA.-D-GLUCOSE] | < 10 |
| CN1C(=O)CC[C@H]1c1cccnc1 [COTININE] | < 10 |
| COC1=C[C@@H]2C3=C([C@@H]2C1=O)[C@@H](NC(C)=O)CCc1cc(OC)c(OC)c(OC)c13 [β-Lumicolchicine] | 36 |
| CC1CC(C)C(=O)C1=O (stereo not drawn) | 27 |
| CCCCC[C@H](O)/C=C/C1=C(CCCCCCC(=O)O)C(=O)CC1 [PROSTAGLANDIN B1] | < 10 |
| CNc1ccccc1C(=O)N1CCc2c([nH]c3ccccc23)C1=O [Rhetsinine] | 26 |
| Oc1ccc(/C=C/c2cc(O)cc(O)c2)cc1 [RESVERATROL] | 18 |
| O=C1C=C2C(=CCOC2O)O1 (stereo not drawn) [PATULIN] | < 10 |
| O=c1c(-c2ccc(O)cc2)coc2c([C@@H]3O[C@H](CO)[C@@H](O)[C@H](O)[C@H]3O)c(O)ccc12 [PUERARIN] | < 10 |
| O=C(O)c1cccnc1C(=O)O [QUINOLINIC ACID] | < 10 |
| CC(C=O)Cc1ccc(C(C)C)cc1 (stereo not drawn) [CYCLAMEN ALDEHYDE] | 82 |
| NCCc1c[nH]c2ccc(O)cc12 [SEROTONIN HYDROCHLORIDE] | < 10 |
| C[S+](CC[C@H](N)C(=O)[O-])C[C@H]1O[C@@H](n2cnc3c(N)ncnc32)[C@H](O)[C@@H]1O (stereo partly drawn) [S-ADENOSYLMETHIONINE] | < 10 |
| NC1C=CC=C(C(=O)O)C1 (stereo not drawn) | < 10 |

Same assay, conditions: PAMPA, PAMPA-BBB Pe, Table S2: compounds exhibiting moderate to high PAMPA-BBB permeability

| Compound | Papp [nm/s] |
| --- | --- |
| O=C(/C=C/c1ccccc1)OCc1ccccc1 [BENZYL CINNAMATE] | > 4240 |
| Cc1ccc(C(C)C)c(O)c1 [THYMOL] | 1680 |
| CCOC(=O)c1c(C)cc(O)cc1O [ETHYL ORSELLINATE] | 1370 |
| COc1cccc(OC)c1C(=O)O [2,6-DIMETHOXYBENZOIC ACID] | 240 |
| C=C(C)c1cc2cc(C(C)=O)c(O)cc2o1 [EUPARIN] | 1250 |
| CC(C)[C@H]1C(=O)N[C@H](CO)Cc2c[nH]c3cccc(c23)N1C [[…]] | 470 |
| CC1=C(O)C(=O)CO1 [NORFURONOL] | 470 |
| Cc1ccnc(N)c1 [AMINOPICOLINE] | 130 |
| O=c1c2ccccc2nc2n1CCc1c-2[nH]c2ccccc12 [RUTECARPINE] | 1510 |
| COc1ccc(COC(C)=O)cc1 [P-METHOXYBENZYL ACETATE] | 1720 |
| CCCOc1ccc2[nH]cc(C3=CCNCC3)c2n1 | 180 |
| COc1cc2c(cc1O)C[C@H]1c3c(cc(O)c(OC)c3-2)CCN1C [BOLDINE] | 490 |
| COc1ccc(Cc2nccc3cc(OC)c(OC)cc23)cc1OC [PAPAVERINE HYDROCHLORIDE] | 1650 |
| CC(=O)c1ccc[nH]1 [METHYL PYRROL-2-YL KETONE] | 280 |
| O=Cc1cc2ccccc2o1 [2-FORMYLBENZOFURAN] | 1540 |
| COc1ccc(C(C)=O)c(O)c1 [PAEONOL] | 1460 |
